CC50 and EC50 data for 17 compounds are collected here from patent US20230203004A1, “RSV INHIBITING 3-SUBSTITUTED QUINOLINE AND CINNOLINE DERIVATIVES” (Janssen Sciences Ireland Unlimited Company, priority 2020, published 2023).

Where two headings read alike, the source gives them in different places.

Usually CC50 stands for the concentration at which the toxic effect on the cells reaches its halfway point. In general, EC50 refers to the concentration giving half of the maximal effect.

Data set [1] in a line: Cytotoxicity in HeLa cells (ATP content, ATPlite kit). The class given is cell-based. Particulars: human. How it is done: (§1) Black 384-well clear-bottom microtiter plates (Corning, Amsterdam, The Netherlands) were filled via acoustic drop ejection using the echo liquid handler (Labcyte, Sunnyvale, California). 200 nL of compound stock solutions (100% DMSO) were transferred to the assay plates. 9 serial 4-fold dilutions of compound were made, creating per quadrant the same compound concentration. The assay was initiated by adding 10 µL of culture medium to each well (RPMI medium without phenol red, 10% FBS-heat inactivated, 0.04% gentamycin (50 mg/mL). All addition steps are done by using a multidrop dispenser (Thermo Scientific, Erembodegem, Belgium). Next, rgRSV224 virus (MOI = 1) diluted in culture medium was added to the plates. rgRSV224 virus is an engineered virus that includes an additional GFP gene (Hallak LK, Spillmann D, Collins PL, Peeples ME. Glycosaminoglycan sulfation requirements for respiratory syncytial virus infection; Journal of virology (2000), 74(22), 10508-13) and was in-licensed from the NIH (Bethesda, MD, USA). Finally, 20 µL of a HeLa cell suspension (3,000 cells/well) were plated. Medium, virus- and mock-infected controls were included in each test. The wells contain […] DMSO per volume. Cells were incubated at 37° C. in a 5% CO2 atmosphere. Three days post-virus exposure, viral replication was quantified by measuring GFP expression in the cells by an in house developed MSM laser microscope (Tibotec, Beerse, Belgium). The EC50 was defined as the 50% inhibitory concentration for GFP expression. In parallel, compounds were incubated for three days in a set of white 384-well microtiter plates (Corning) and the cytotoxicity of compounds in HeLa cells was determined by measuring the ATP content of the cells using the ATPlite kit (Perkin Elmer, Zaventem, Belgium) according to the manufacturer’s instructions. The CC50 was defined as the 50% concentration for cytotoxicity.

The subject of another data set is rgRSV224 virus. Description: Antiviral activity: rgRSV224 (GFP) replication in HeLa cells. It is filed as cell-based, respiratory syncytial virus (RSV). The protocol: as §1
[2] abbreviates: read-out: RSV HELA EC50, HeLa cells, rgRSV224 MOI = 1, GFP expression three days post-virus exposure, averaged data of several repeat experiments.
The mark [3] stands for this setting: human respiratory syncytial virus, HeLa, 72 h, read-out: RSV HELA EC50, HeLa cells, rgRSV224 MOI = 1, GFP expression three days post-virus exposure, averaged data of several repeat experiments.

With `COc1cc(C(=O)NCC(O)(c2cc(C(C)(C)O)c(F)c(-c3ccc(F)cc3)n2)C(F)F)cc2cc(C)cnc12` (single isomer, unassigned; (+)) [compound 203, (+)-N-{3,3-Difluoro-2-[5-Fluoro-6-(4-Fluorophenyl)-4-(2-Hydroxypropan-2-yl)Pyridin-2-yl]-2-Hydroxypropyl}-8-Methoxy-3-Methylquinoline-6-Carboxamide], the midpoint of cytotoxicity in data set [1] (TOX HELA CC50), the CC50 at 3 days, lay at 43 µM. Also, in the data set with rgRSV224 virus (setting [2]), the EC50 was found to be 0.48 µM.
In the case of `COc1cc(C(=O)NCC(O)(c2cc(C(C)(C)O)c(F)c(-c3ccc(F)cc3)n2)C(F)F)cc2cc(C)c(F)nc12` (single isomer, unassigned; (+)) [compound 213, (+)-N-{3,3-Difluoro-2-[5-Fluoro-6-(4-Fluorophenyl)-4-(2-Hydroxypropan-2-yl)Pyridin-2-yl]-2-Hydroxypropyl}-2-Fluoro-8-Methoxy-3-Methylquinoline-6-Carboxamide], the CC50 at 3 days in data set [1] (TOX HELA CC50) is 31 µM. Moreover, the EC50 with rgRSV224 virus (setting [2]) was found to be 0.52 µM.
The like results for `COc1cc(C(=O)NCC(O)(c2cc(C(C)(C)O)c(F)c(-c3ccc(F)cc3)n2)C(F)F)cc2cc(C)nnc12` (single isomer, unassigned; (+)) [compound 249, (+)-N-{3,3-Difluoro-2-[5-Fluoro-6-(4-Fluorophenyl)-4-(2-Hydroxypropan-2-yl)Pyridin-2-yl]-2-Hydroxypropyl}-8-Methoxy-3-Methylcinnoline-6-Carboxamide] were, in that order, 35 µM and above 1.25 µM.
In data set [1] (TOX HELA CC50), `COc1cc(C(=O)NCC(O)(c2cc(C(C)(C)NC(C)=O)c(F)c(-c3ccc(F)cc3)n2)C(F)(F)F)cc2cc(C)nnc12` (single isomer, unassigned; (-)) [compound 235, (-)-N-{2-[4-(2-Acetamidopropan-2-yl)-5-Fluoro-6-(4-Fluorophenyl)Pyridin-2-yl]-3,3,3-Trifluoro-2-Hydroxypropyl}-8-Methoxy-3-Methylcinnoline-6-Carboxamide] displayed a CC50 at 3 days of 25 µM. In addition, the EC50 in the data set with rgRSV224 virus (setting [3]) was 0.00062 µM.
In turn, `COc1cc(C(=O)NCC(O)(c2cc(C(C)(C)O)c(F)c(-c3ccc(C4CC4)cc3)n2)C2CC2)cc2cc(C)nnc12` (single isomer, unassigned; (-)) [compound 254, (-)-N-{2-Cyclopropyl-2-[6-(4-Cyclopropylphenyl)-5-Fluoro-4-(2-Hydroxypropan-2-yl)Pyridin-2-yl]-2-Hydroxyethyl}-8-Methoxy-3-Methylcinnoline-6-Carboxamide] returned a CC50 at 3 days in data set [1] (TOX HELA CC50) of 15 µM. Moreover, the EC50 with rgRSV224 virus (setting [3]) was determined as 0.0035 µM.
In data set [1] (TOX HELA CC50), `COc1cc(C(=O)NCC(O)(c2cc(C(C)(C)O)c(F)c(-c3cccc(F)c3)n2)C2CC2)cc2cc(C)nnc12` (single isomer, unassigned; (-)) [compound 255, (-)-N-{2-Cyclopropyl-2-[5-Fluoro-6-(3-Fluorophenyl)-4-(2-Hydroxypropan-2-yl)Pyridin-2-yl]-2-Hydroxyethyl}-8-Methoxy-3-Methylcinnoline-6-Carboxamide] registered a CC50 at 3 days of 44 µM. The EC50 in the data set on rgRSV224 virus (setting [3]) is 0.00081 µM.
Taken in the same sequence, the figures for `Cc1cc2cc(C(=O)NCC(O)(c3cc(C(C)(C)O)c(F)c(-c4ccc(F)cc4)n3)C3CC3)cc(OC(F)F)c2nn1` (single isomer, unassigned; (-)) [compound 260, (-)-N-{2-Cyclopropyl-2-[5-Fluoro-6-(4-Fluorophenyl)-4-(2-Hydroxypropan-2-yl)Pyridin-2-yl]-2-Hydroxyethyl}-8-(Difluoromethoxy)-3-Methylcinnoline-6-Carboxamide] were 19 µM and 0.0016 µM.
In data set [1] (TOX HELA CC50), `Cc1cc2cc(C(=O)NCC(O)(c3cc(C(C)(C)O)c(Cl)c(-c4ccc(F)cc4)n3)C(F)(F)F)cc(OC(F)(F)F)c2nn1` (single isomer, unassigned; (-)) [compound 261, (-)-N-{2-[5-Chloro-6-(4-Fluorophenyl)-4-(2-Hydroxypropan-2-yl)Pyridin-2-yl]-3,3,3-Trifluoro-2-Hydroxypropyl}-3-Methyl-8-(Trifluoromethoxy)Cinnoline-6-Carboxamide] showed a CC50 at 3 days of 13 µM. The EC50 in the data set on rgRSV224 virus (setting [3]) worked out at 0.013 µM.
Taken in the same sequence, the figures for `COc1cc(C(=O)NCC(O)(c2cc(C(C)(C)O)c(F)c(-c3ccc(F)cc3)n2)[C@H]2CC2(F)F)cc2cc(C)nnc12` (stereo in doubt) [compound 319, N-((*R)-2,2-Difluorocyclopropyl)-2-(5-Fluoro-6-(4-Fluorophenyl)-4-Hydroxypropan-2-yl)Pyridin-2-yl)-2-Hydroxyethyl)-8-Methoxy-3-Methylcinnoline-6-Carboxamide] were 6.1 µM and 0.0012 µM.
In the case of `COc1cc(C(=O)NCC(O)(c2cc(C(C)(C)O)c(F)c(-c3ccc(F)cc3)n2)[C@@H]2CC2(F)F)cc2cc(C)nnc12` (stereo in doubt) [compound 320, N-((*S)-2,2-Difluorocyclopropyl)-2-(5-Fluoro-6-(4-Fluorophenyl)-4-Hydroxypropan-2-yl)Pyridin-2-yl)-2-Hydroxyethyl)-8-MZthoxy-3-Methylcinnoline-6-Carboxamide], the cytotoxic concentration (CC50) at 3 days in data set [1] (TOX HELA CC50) was found to be 24 µM. In addition, in the data set with rgRSV224 virus (setting [3]), the EC50 stood at 0.001 µM.
For the compound `CC(C)(O)c1cc([C@@](O)(CNC(=O)c2cc(OC3CC3)c3ncccc3c2)C(F)(F)F)nc(-c2ccc(F)cc2)c1F` [Compound A, reference compound], in data set [1] (CC50), the CC50 at 3 days worked out at 37 µM. For the same compound, the midpoint of the response with rgRSV224 virus (human respiratory syncytial virus, HeLa, comparison table 5.3, antiviral RSV assay of Example 5.1), the EC50, lay at 0.014 µM.
In turn, `COc1cc(C(=O)NC[C@](O)(c2cc(C(C)(C)O)c(Cl)c(-c3ccc(F)cc3)n2)C(F)(F)F)cc2cc(C)cnc12` [compound 200, (-)-N-{2-[5-Chloro-6-(4-Fluorophenyl)-4-(2-Hydroxypropan-2-yl)Pyridin-2-yl]-3,3,3-Trifluoro-2-Hydroxypropyl}-8-Methoxy-3-Methylquinoline-6-Carboxamide] showed a CC50 at 3 days in data set [1] (TOX HELA CC50) of 22 µM. In addition, the EC50 in the data set with rgRSV224 virus (setting [3]) was determined as 0.0017 µM.
In turn, `COc1cc(C(=O)NC[C@](O)(c2nc(-c3ccc(F)cc3)c(F)c(C(C)(C)O)c2F)C(F)(F)F)cc2cc(C)cnc12` [compound 201, (-)-N-{2-[3,5-difluoro-6-(4-fluorophenyl)-4-(2-hydroxypropan-2-yl)pyridin-2-yl)-3,3,3-trifluoro-2-hydroxypropyl}-8-methoxy-3-methylquinoline-6-carboxamide] displayed a CC50 at 3 days in data set [1] (TOX HELA CC50) of 43 µM. Further, in the data set on rgRSV224 virus (setting [3]), the EC50 stood at 0.0026 µM.
Taken in the same sequence, the figures for `COc1cc(C(=O)NC[C@](O)(c2nc(-c3ccc(F)cc3)c(Cl)c(C(C)(C)O)c2F)C(F)(F)F)cc2cc(C)cnc12` [compound 202] were 46 µM and 0.0048 µM.
Taken in the same sequence, the figures for `COc1cc(C(=O)NC[C@](O)(c2cc(C(C)(C)O)c(Cl)c(-c3ccc(F)cc3)n2)C2CC2)cc2cc(C)cnc12` [compound 205, (-)-N-{2-[5-Chloro-6-(4-Fluorophenyl)-4-(2-Hydroxypropan-2-yl)Pyridin-2-yl]-2-Cyclopropyl-2-Hydroxyethyl}-8-Methoxy-3-Methylquinoline-6-Carboxamide] were 32 µM and 0.00081 µM.
The like results for `COc1cc(C(=O)NC[C@](O)(c2cc(C(C)(C)O)c(F)c(-c3ccc(F)cc3)n2)C2CC2)cc2cc(C)cnc12` [compound 206] were, in that order, 15 µM and 0.00046 µM.
For the compound `COc1cc(C(=O)NC[C@](O)(c2cc(C(C)(C)O)c(F)c(-c3ccc(C(F)(F)F)cc3)n2)C2CC2)cc2cc(C)cnc12` [compound 207], the half-maximal cytotoxic concentration (CC50) at 3 days in data set [1] (TOX HELA CC50) turned out to be 13 µM. In the data set on rgRSV224 virus (setting [3]), the 50% effective concentration (EC50) was 0.00077 µM.
